# Results: patent US20030105360A1, “Form a of fluoxetine hydrochloride” (priority 2001, published 2003)
# Assay type: physicochemical
# Protocol: Using the appropriately precise DSC method set forth in Example 12 herein, wherein the analysis is conducted at a maximum rate of 1° C. per minute, multiple levels of polymorph Forms A, B, and C each are typically present in fluoxetine hydrochloride API (FIGS. 2 and 4). When such API is prepared via any one of the methods of the present invention, recrystallization, slurry, and compression, and analyzed using said DSC method, a single endotherm occurring at a temperature range from about 155° C. to about 160° C., and more preferably from about 157° C. to about 159° C., confirms the presence of Form A of fluoxetine hydrochloride (FIGS. 6 and 8 for the compression and slurry methods, respectively). […] Accordingly, the slurry method for preparing pure and essentially pure Form A is preferred, while the compression method is especially preferred.
# Differential Scanning Calorimetry for fluoxetine hydrochloride. The method described in Example 11 was used, except the heating rate was changed from 10° C. per minute to a heating rate of 1° C. per minute from 145° C. to 175° C.
structure (smiles),measurement,setting,value
"CNCCC(Oc1ccc(C(F)(F)F)cc1)c1ccccc1.Cl (racemic) [Form A, (±)-N-methyl-3-phenyl-2-[α,α,α-trifluoro-p-tolyl) oxy] propylamine hydrochloride]",polymorphic forms found by DSC after storage under accelerated stability conditions,,"two additional polymorphs of fluoxetine hydrochloride, Forms D and E, were prepared"
same,polymorphic forms found by DSC thermogram (FIG. 11) after storage,"pure Form A prepared via recrystallization method, stored at 40° C. and 75% relative humidity, within three days","Forms A, D, and E, which formed within three days"
